For one assay, the target named is T1, CDK2/Cyclin complex (Homo sapiens, UniProt P24941).
T1 construct: endogenous in cells; host or cells: C81 (HTLV-1-infected T-cell line), size-exclusion fractions 28-31 of whole cell lysate
In words: Kinase assay of immunoprecipitated Cyclin E samples with Histone H1. The assay is classed as biochemical. The note with it: 10 µM peptide, Histone H1 substrate. On the procedure:
(§1) B) Immunoprecipitated Cyclin E samples in the presence of peptides were assessed for kinase activity. Histone H1 (1 µg/reaction) was added to each reaction tube along with 2 µl of (γ-32P) ATP (3000 Ci/mmol). Reactions were incubated at 37°C for 30 min and stopped by the addition Laemmli buffer. The samples were separated on a 4–20% Tris–Glycine gel. Samples were ran on a gel, dried, and exposed to a PhosphorImager cassette and analyzed using Molecular Dynamic’s ImageQuant Software.
The levels of phosphorylation of H1 are shown in the presence of the six designed peptides.
Immunoprecipitated samples were assessed for kinase activity. After the final TNE50+0.1% NP-40 wash, beads were washed with kinase buffer (50 mM HEPES, 10 mM MgCl2, 5 mM MnCl2, 1 mM DTT, 50 mM NaF, 0.2 mM Na3VO4 and one complete tablet of protease cocktail inhibitor/50 ml buffer) to equilibrate the reaction. Histone H1 (1 µg) was added to each reaction tube along with the γ-32P ATP (2 µl at 3000 Ci/mmol). Reactions were incubated at 37°C for 30 min and stopped by the addition of 15 µl Laemmli buffer. The samples were separated by reducing SDS-PAGE on a 4–20% Tris–Glycine gel. Gels were stained with Coomassie blue, destained, and then dried for 2 hours. Following drying, the gels were exposed to a PhosphorImager cassette and analyzed utilizing Molecular Dynamic’s ImageQuant Software.

The next assay deals with CDK2 (Homo sapiens, UniProt P24941). The assay is described as follows: Surface Plasmon Resonance (SPR) peptide binding assay. The note with it: for Ka1 / Ka2 / Kd1 / Kd2: two-state model.
The target of the next assay is T2, CDK2/Cyclin E complex (Homo sapiens, UniProt P24941).
T2 construct: endogenous in cells; host or cells: C81 (HTLV-1-infected T-cell line), size-exclusion fractions 28-31 of whole cell lysate
The assay is described as follows: Cyclin E immunoprecipitation and Western blot for CDK2 (complex dissociation). The conditions noted are these: 10 µM peptide, C81 fractionated cell extracts. The assay is classed as biochemical. The protocol: This is discussed below by the kinase activity experiment.
as §1
C81 whole cell lysate (5 mg) was fractionated on a Superose 6 HR 10/30 column (Amersham Biosciences, Piscataway, NJ) in Buffer D (20 mM HEPES (pH 7.9), 0.05 M KCl, 0.2 mM EDTA, 0.5 mM PMSF, 0.05 DTT, and 20% Glycerol). Flow-through was collected at 0.5 ml for 50 fractions.
The pooled C81 extracts (250 µg each) were combined with 10 µM of each respective peptide. Cyclin E antibody (Santa Cruz, sc-198) was added to each reaction tube (10 µl, 2 µg), the reaction mixture was brought up to 500 µl with TNE50+0.1% NP-40 (100 mM Tris, pH 8.0; 50 mM NaCl; 1 mM EDTA, 0.1% Nonidet P-40) and was allowed to incubate while rotating overnight at 4°C. α-IgG was added to extract as a negative control, and an IP was performed in the absence of competing peptide, acting as a positive control. […]

Ends that are not written are not given here.

Regarding `CC(C)C[C@H](NC(=O)[C@H](C)NC(=O)[C@H](C)NC(=O)[C@@H](N)CC(=O)O)C(=O)N[C@H](C(=O)O)[C@@H](C)O` [DAALT, NH2-D-A-A-L-T-OH], at CDK2/Cyclin complex, the “kinase activity (phosphorylation of H1)” value is “clear loss of kinase activity”. Further, the “mechanism of binding (SPR response curve)” value on CDK2 was “fast binding and fast dissociation”. At CDK2 (with 60 µM ATP), the Ka1 is 612.9 ± 13.0 M⁻¹ s⁻¹, the Ka2 is on record as 34.6±1.0 E-3 1/Ms, the Kd1 is on record as 101.2±4.3 E-3 1/s and the Kd2 was 10.1±0.1 E-3 1/s. Also, on CDK2 (without ATP), the Ka1 was 434.1 ± 6.6 M⁻¹ s⁻¹, the Ka2 is on record as 14.1±0.4 E-4 1/Ms, the Kd1 was 23.2±0.4 E-3 1/s and the Kd2 is on record as 1.3±0.6 E-5 1/s. For the same molecule, at CDK2/Cyclin E complex, the “dissociation of CDK2 from the CDK2/Cyclin complex” value is listed as “dissociation of CDK2 from the CDK2/Cyclin complex”.
In the case of `CC(C)C[C@H](NC(=O)[C@H](C)NC(=O)[C@H](C)NC(=O)[C@@H](N)Cc1ccc(O)cc1)C(=O)N[C@@H](CCC(N)=O)C(=O)O` [YAALQ, NH2-Y-A-A-L-Q-OH], the “kinase activity (phosphorylation of H1)” value on CDK2/Cyclin complex is reported as “clear loss of kinase activity”. In addition, at CDK2, the “mechanism of binding (SPR response curve)” value was “fast binding and fast dissociation”. Also, on CDK2 (with 60 µM ATP), the Ka2 was 12.3±0.3 E-3 1/Ms, the Kd1 was 53.9±1.4 E-3 1/s and the Kd2 was 1.6±0.1 E-3 1/s. For the same molecule, at CDK2 (without ATP), the Ka2 is listed as 9.0±0.3 E-3 1/Ms, the Kd1 is reported as 84.0±2.7 E-3 1/s and the Kd2 is given as 2.2±0.1 E-3 1/s. Moreover, at CDK2/Cyclin E complex, the “dissociation of CDK2 from the CDK2/Cyclin complex” value is listed as “weak complex disassociation”.
As a reminder, the Kd is the concentration at which binding is half-saturated. A higher Kd goes with lower affinity. Turning to LAALS [LAALS, reference compound], the dissociation constant (Kd) on CDK2 (without ATP) came to 8 µM.

Source of the values: PMC4188581 (PLoS ONE, 2014).
